Results reported in PMC5384001 (Scientific Reports, 2017).

Key:
[1] = molecular target: GluN3B LBD; set-up: method as in PMID 18636091; details: cited from earlier work
[2] = molecular target: T1, GluD2-Lc(A686S) (Rattus norvegicus, UniProt Q63226, A654T/A686S); test: Two-electrode voltage clamp in Xenopus oocytes, inhibition of spontaneous currents; assay type: cell-based; details: fraction of spontaneous current inhibited by saturating D-serine
T1 construct: the function of full-length receptors as well, we introduced them into the GluD2 lurcher mutant (GluD2-Lc); expressed in transfected cells; host or cells: Xenopus laevis oocytes injected with cRNA
T1 sequence (Q63226 24-1007 A654T/A686S): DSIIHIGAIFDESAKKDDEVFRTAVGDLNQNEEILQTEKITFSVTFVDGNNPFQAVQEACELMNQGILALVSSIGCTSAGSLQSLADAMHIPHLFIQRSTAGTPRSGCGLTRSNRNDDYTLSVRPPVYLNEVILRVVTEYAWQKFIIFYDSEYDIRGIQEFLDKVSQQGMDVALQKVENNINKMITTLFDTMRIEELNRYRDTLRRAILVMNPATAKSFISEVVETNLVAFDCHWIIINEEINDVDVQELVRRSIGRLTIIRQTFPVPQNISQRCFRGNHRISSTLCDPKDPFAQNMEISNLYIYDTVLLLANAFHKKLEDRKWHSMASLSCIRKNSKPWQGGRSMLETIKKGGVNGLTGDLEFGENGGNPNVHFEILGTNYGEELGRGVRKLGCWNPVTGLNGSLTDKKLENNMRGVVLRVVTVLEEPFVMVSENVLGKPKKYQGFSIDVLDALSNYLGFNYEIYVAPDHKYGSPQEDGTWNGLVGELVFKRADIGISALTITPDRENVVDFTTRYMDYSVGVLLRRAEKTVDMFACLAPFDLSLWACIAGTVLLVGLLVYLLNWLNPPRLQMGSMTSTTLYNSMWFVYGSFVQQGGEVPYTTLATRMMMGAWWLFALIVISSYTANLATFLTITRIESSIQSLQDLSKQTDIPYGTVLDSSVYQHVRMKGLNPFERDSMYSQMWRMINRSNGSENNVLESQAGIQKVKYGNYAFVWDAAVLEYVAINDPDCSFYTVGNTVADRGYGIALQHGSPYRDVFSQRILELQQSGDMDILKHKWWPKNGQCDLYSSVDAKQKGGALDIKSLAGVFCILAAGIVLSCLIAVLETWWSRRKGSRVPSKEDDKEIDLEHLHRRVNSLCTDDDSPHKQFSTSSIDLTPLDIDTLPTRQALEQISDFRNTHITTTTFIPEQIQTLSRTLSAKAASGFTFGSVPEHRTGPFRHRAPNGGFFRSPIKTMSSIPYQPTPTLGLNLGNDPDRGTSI

N[C@H](CO)C(=O)O [D-serine]
Kd [1]: 163 nM
D-serine efficacy Mean ± SEM [2]: 43.9 ± 0.7%
